Experimental data published in BigSolDB 2.1.

Settings: in isobutyl acetate

Q: Which solubility (mole fraction) (300.68 K) does the source give for `O=C(O)c1ccccc1C(=O)O` here?
A: 0.0011

Q: And the solubility (mole fraction) (302.37 K)?
A: 0.0012

Q: What about the solubility (mole fraction) (304.42 K) of the same compound?
A: 0.0012

Q: And the solubility (mole fraction) (309.58 K)?
A: 0.0016

Q: What about the solubility (mole fraction) (312.72 K) of the same compound?
A: 0.0022

Q: What about the solubility (mole fraction) (317.36 K) of the same compound?
A: 0.0026

Q: And the solubility (mole fraction) (326.85 K)?
A: 0.0032

Q: And the solubility (mole fraction) (331.86 K)?
A: 0.0037

Q: What about the solubility (mole fraction) (335.27 K) of the same compound?
A: 0.005

Q: What about the solubility (mole fraction) (340.04 K) of the same compound?
A: 0.0062

Q: And the solubility (mole fraction) (342.69 K)?
A: 0.0077

Q: What about the solubility (mole fraction) (348.7 K) of the same compound?
A: 0.0092

Q: Which results are given for `O=C(O)c1ccccc1`?
A: solubility (mole fraction) (299.73 K): 0.14; solubility (mole fraction) (302.46 K): 0.149; solubility (mole fraction) (307.34 K): 0.178; solubility (mole fraction) (313.61 K): 0.208; solubility (mole fraction) (322.93 K): 0.254; solubility (mole fraction) (328.98 K): 0.293; solubility (mole fraction) (332.24 K): 0.311; solubility (mole fraction) (334.34 K): 0.325; solubility (mole fraction) (335.58 K): 0.337; solubility (mole fraction) (336.03 K): 0.338; solubility (mole fraction) (337.33 K): 0.349; solubility (mole fraction) (337.67 K): 0.351; solubility (mole fraction) (338.76 K): 0.358; solubility (mole fraction) (339.37 K): 0.362; solubility (mole fraction) (339.86 K): 0.369; solubility (mole fraction) (341.48 K): 0.379; solubility (mole fraction) (342.69 K): 0.39; solubility (mole fraction) (343.67 K): 0.399

Q: Which solubility (mole fraction) (308.15 K) does the source give for `O=C(O)c1cccc(C(=O)O)c1` here?
A: 0.000352

Q: What about the solubility (mole fraction) (313.15 K) of the same compound?
A: 0.000388

Q: What about the solubility (mole fraction) (318.15 K) of the same compound?
A: 0.000438

Q: What about the solubility (mole fraction) (323.15 K) of the same compound?
A: 0.000507

Q: What about the solubility (mole fraction) (328.15 K) of the same compound?
A: 0.000691

Q: And the solubility (mole fraction) (333.15 K)?
A: 0.000917

Q: What about the solubility (mole fraction) (338.15 K) of the same compound?
A: 0.0013

Q: And the solubility (mole fraction) (343.15 K)?
A: 0.00166

Q: What about the solubility (mole fraction) (348.15 K) of the same compound?
A: 0.00201

Q: And the solubility (mole fraction) (353.15 K)?
A: 0.00221

Q: What does the source list for `Cc1ccc(C(=O)O)cc1`?
A: solubility (mole fraction) (300.19 K): 0.0328; solubility (mole fraction) (303.04 K): 0.0338; solubility (mole fraction) (306.43 K): 0.0356; solubility (mole fraction) (310.28 K): 0.0421; solubility (mole fraction) (312.7 K): 0.0434; solubility (mole fraction) (315.36 K): 0.0475; solubility (mole fraction) (319.97 K): 0.0525; solubility (mole fraction) (323.16 K): 0.0573; solubility (mole fraction) (324.84 K): 0.0612; solubility (mole fraction) (325.76 K): 0.0653; solubility (mole fraction) (329.67 K): 0.0692; solubility (mole fraction) (332.48 K): 0.0735; solubility (mole fraction) (333.91 K): 0.0774; solubility (mole fraction) (335.96 K): 0.0813; solubility (mole fraction) (337.49 K): 0.0848; solubility (mole fraction) (339.46 K): 0.0885; solubility (mole fraction) (341.07 K): 0.0918; solubility (mole fraction) (342.68 K): 0.0954; solubility (mole fraction) (344.69 K): 0.0994; solubility (mole fraction) (345.82 K): 0.103; solubility (mole fraction) (347.26 K): 0.107; solubility (mole fraction) (348.41 K): 0.11

Q: For `O=C(O)c1ccc(C(=O)O)cc1`, which solubility (mole fraction) (305.15 K) is on record?
A: 2.38e-05

Q: And the solubility (mole fraction) (308.15 K)?
A: 2.57e-05

Q: What about the solubility (mole fraction) (313.15 K) of the same compound?
A: 3.22e-05

Q: What about the solubility (mole fraction) (318.15 K) of the same compound?
A: 3.41e-05

Q: What about the solubility (mole fraction) (323.15 K) of the same compound?
A: 3.86e-05

Q: What about the solubility (mole fraction) (328.15 K) of the same compound?
A: 5.78e-05

Q: What about the solubility (mole fraction) (333.15 K) of the same compound?
A: 7.07e-05

Q: What about the solubility (mole fraction) (338.15 K) of the same compound?
A: 8.25e-05

Q: What about the solubility (mole fraction) (343.15 K) of the same compound?
A: 8.91e-05

Q: What about the solubility (mole fraction) (348.15 K) of the same compound?
A: 0.000104
